According to ChEMBL document CHEMBL1201862, “PubChem BioAssay data set” (2004):
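In this assay, cells in 96-well plates receive the compound at five concentrations for 48 hours. Endpoints are linearly interpolated between the surrounding concentrations. GI50 marks 50% less growth.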 Calls of active or inactive are those of the source. No stated cut-off is given here; in the data, active = GI50 up to about 1.1 µM and inactive = higher.

Key:
Test in all cases: inhibition of tumour cell growth, NCI panel, 48 h
DLD-1 = test system: DLD-1
HOP-18 = test system: HOP-18
KM-20L2 = test system: KM-20L2
RXF 631 = test system: RXF 631
SNB-78 = test system: SNB-78
M19-MEL = test system: M19-MEL
DMS-114 = test system: DMS-114
XF498 = test system: XF498
Hs-578T = test system: Hs-578T

Measured: GI50

Oc1ccc2c(c1)OCC1(O)Cc3cc(O)c(O)cc3C21 (stereo not given)
inactive: DLD-1 17.3 µM | HOP-18 18.3 µM | KM-20L2 38.3 µM | RXF 631 41 µM | SNB-78 14.7 µM | M19-MEL 29.1 µM | DMS-114 26.7 µM | XF498 15.2 µM

O=C(CC1(O)C(=O)Nc2c(Cl)ccc(Cl)c21)c1ccco1 (stereo not given)
inactive: DLD-1 39.7 µM | HOP-18 > 100 µM | KM-20L2 37.8 µM | RXF 631 26.4 µM | SNB-78 51.8 µM | Hs-578T 26 µM | M19-MEL 2.31 µM | DMS-114 18 µM | XF498 11.9 µM

C[N+](C)(C)CC(=O)NC(=O)N/N=C\C(CC#N)CN(Cc1ccccc1)Cc1ccccc1 (stereo not given)
inactive: DLD-1 > 100 µM | HOP-18 59.6 µM | KM-20L2 > 100 µM | RXF 631 > 100 µM | SNB-78 > 100 µM | M19-MEL > 100 µM | DMS-114 > 100 µM | XF498 > 100 µM

COc1cc2c(c(O)c1O)-c1ccc(OC)c(=O)cc1C(NC(C)=O)CC2 (stereo not given)
inactive: DLD-1 29.6 µM | HOP-18 > 22.1 µM | KM-20L2 3.8 µM | RXF 631 38 µM | SNB-78 4.54 µM | M19-MEL 6.98 µM | XF498 6.18 µM

CCOC(=O)C12CCCC1(O)N(NC(N)=O)C(C)=C2C(=O)OC (stereo not given)
inactive: DLD-1 > 100 µM | HOP-18 > 100 µM | KM-20L2 > 100 µM | RXF 631 > 100 µM | SNB-78 > 100 µM | M19-MEL > 100 µM | DMS-114 > 100 µM | XF498 > 100 µM

CCn1c(C)nc([N+](=O)[O-])c1Sc1ncc[nH]1
inactive: DLD-1 30.5 µM | HOP-18 4.8 µM | RXF 631 24.7 µM | SNB-78 33.7 µM | M19-MEL 36.8 µM | DMS-114 34.4 µM | XF498 43.2 µM

O=C1[C@@H]2C3c4ccccc4C([C@@H]2C(=O)N1c1ccccc1)S3(=O)=O
inactive: DLD-1 > 100 µM | HOP-18 > 100 µM | KM-20L2 > 100 µM | RXF 631 26.8 µM | SNB-78 > 100 µM | M19-MEL > 100 µM | DMS-114 37.9 µM | XF498 > 100 µM
